One data set has as its target T1, ROCK1 (Homo sapiens, UniProt Q13464).
T1 construct: purchased DiscoverX (KINOMEscan KdELECT service); host or cells: E. coli BL21-derived (T7 phage) or HEK-293
Nature of the data set: ROCK1 kinase binding affinity, DiscoverX KINOMEscan KdELECT. The conditions noted are these: equilibrium dissociation constant, 11-point 3-fold dilution series.

Another data set has as its target T2, ROCK2 (Homo sapiens, UniProt O75116).
T2 construct: purchased DiscoverX (KINOMEscan KdELECT service); host or cells: E. coli BL21-derived (T7 phage) or HEK-293
The data set can be described thus: ROCK2 kinase binding affinity, DiscoverX KINOMEscan KdELECT. The conditions noted are these: for ROCK 2 Selectivity: ROCK2 over ROCK1, from Kd values, N/C = not calculated; for Kd: equilibrium dissociation constant, 11-point 3-fold dilution series, read-out: Kd (μM) ROCK2.

For data set [1] the following is noted: 12-16 weeks of dosing in healthy volunteers and patients; cited from earlier work.
Data set [2] has as its system murine autoimmune disease. The conditions noted are these: cited from earlier work.
For a further data set, the system named is fibroblasts. The conditions noted are these: fibroblasts treated with KD025; cited from earlier work.

Some results are limits rather than exact numbers.

T1 sequence (Q13464 whole entry): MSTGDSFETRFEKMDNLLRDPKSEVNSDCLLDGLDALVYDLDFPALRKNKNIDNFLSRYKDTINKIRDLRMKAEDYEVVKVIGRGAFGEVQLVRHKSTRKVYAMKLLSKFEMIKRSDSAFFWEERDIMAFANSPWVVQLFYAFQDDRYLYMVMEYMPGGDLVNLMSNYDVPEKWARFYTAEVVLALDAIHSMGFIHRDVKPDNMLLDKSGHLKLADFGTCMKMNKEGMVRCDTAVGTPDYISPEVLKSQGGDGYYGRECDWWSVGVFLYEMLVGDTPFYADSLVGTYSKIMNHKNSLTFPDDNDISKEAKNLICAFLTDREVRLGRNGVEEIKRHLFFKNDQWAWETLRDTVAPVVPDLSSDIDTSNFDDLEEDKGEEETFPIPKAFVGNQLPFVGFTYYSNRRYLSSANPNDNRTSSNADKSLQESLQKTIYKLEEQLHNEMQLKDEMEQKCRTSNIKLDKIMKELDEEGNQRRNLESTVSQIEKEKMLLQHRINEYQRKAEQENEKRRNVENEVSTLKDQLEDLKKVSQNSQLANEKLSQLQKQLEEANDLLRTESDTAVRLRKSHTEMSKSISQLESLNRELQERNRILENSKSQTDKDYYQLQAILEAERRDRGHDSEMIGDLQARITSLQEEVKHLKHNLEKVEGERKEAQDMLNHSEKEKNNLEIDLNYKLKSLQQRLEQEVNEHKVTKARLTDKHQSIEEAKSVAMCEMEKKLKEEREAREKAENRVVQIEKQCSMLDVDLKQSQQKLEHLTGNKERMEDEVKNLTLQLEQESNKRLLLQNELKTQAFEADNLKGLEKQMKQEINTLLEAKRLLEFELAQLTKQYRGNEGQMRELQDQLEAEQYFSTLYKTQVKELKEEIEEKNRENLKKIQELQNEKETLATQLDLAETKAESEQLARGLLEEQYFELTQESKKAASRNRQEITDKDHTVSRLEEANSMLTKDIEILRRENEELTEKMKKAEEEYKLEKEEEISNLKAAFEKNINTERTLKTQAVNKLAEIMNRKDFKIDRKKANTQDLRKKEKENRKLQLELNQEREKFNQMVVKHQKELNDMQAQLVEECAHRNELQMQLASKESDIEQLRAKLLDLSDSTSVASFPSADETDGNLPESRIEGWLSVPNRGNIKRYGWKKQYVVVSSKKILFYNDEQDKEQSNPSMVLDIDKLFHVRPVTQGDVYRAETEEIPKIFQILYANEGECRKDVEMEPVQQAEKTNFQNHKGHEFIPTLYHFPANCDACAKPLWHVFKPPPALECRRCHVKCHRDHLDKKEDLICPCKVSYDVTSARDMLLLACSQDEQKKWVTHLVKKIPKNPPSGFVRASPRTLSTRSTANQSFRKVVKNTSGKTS
T2 sequence (O75116 whole entry): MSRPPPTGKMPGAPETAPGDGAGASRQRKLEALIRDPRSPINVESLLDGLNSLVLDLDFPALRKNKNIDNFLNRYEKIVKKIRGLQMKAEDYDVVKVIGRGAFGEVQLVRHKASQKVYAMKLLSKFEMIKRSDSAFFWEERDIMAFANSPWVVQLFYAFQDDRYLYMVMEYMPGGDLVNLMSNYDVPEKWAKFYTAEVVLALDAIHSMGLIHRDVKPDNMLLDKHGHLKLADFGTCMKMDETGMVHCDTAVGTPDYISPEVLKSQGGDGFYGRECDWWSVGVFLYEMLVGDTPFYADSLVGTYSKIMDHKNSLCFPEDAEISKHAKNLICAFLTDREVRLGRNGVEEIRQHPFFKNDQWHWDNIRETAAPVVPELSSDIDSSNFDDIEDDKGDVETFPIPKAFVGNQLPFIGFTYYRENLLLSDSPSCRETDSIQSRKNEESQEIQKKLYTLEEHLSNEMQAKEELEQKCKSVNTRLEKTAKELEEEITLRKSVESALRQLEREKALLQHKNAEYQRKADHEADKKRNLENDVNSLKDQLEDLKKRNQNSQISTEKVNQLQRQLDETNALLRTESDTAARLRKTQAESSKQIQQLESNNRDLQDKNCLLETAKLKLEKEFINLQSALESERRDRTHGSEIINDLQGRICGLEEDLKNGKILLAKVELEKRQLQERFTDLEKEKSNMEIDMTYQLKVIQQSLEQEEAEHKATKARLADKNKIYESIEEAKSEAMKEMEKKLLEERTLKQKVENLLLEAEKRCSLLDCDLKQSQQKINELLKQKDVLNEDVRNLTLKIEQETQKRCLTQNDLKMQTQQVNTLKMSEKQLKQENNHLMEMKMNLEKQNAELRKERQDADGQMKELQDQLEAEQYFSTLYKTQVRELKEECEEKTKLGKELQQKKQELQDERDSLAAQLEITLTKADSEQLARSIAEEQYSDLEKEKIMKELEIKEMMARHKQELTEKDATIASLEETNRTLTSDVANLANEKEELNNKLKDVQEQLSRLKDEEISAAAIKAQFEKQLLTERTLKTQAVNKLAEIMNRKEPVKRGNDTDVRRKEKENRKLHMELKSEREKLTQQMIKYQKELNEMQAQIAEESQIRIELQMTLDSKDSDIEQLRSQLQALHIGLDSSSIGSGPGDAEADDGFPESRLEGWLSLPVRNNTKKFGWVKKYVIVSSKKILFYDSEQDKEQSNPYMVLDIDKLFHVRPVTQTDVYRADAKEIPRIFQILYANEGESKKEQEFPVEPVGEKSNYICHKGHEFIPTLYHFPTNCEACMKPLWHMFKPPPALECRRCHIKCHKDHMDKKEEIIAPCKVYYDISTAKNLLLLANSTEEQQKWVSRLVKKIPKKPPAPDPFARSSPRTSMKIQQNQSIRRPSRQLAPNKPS

Broadly, the Kd is the constant that tells how readily two partners part at equilibrium. `C(#Cc1ccnc(-c2ccnc(N3CCN(c4ncc[nH]4)CC3)n2)n1)c1ccc2[nH]ncc2c1` [Ex. 58, 5-((2′-(4-(1H-Imidazol-2-yl)piperazin-1-yl)-[2,4′-bipyrimidin]-4-yl)ethynyl)-1H-indazole]: the Kd at ROCK1 is 1.6 µM. Besides, on ROCK2, the “ROCK 2 Selectivity” value is 5 and the Kd worked out at 0.32 µM.

For the compound `C(#Cc1ccnc(-c2ccnc(N3CCn4cnnc4C3)n2)n1)c1ccc2[nH]ncc2c1` [Ex. 59, 7-(4-((1H-Indazol-5-yl)ethynyl)-[2,4′-bipyrimidin]-2′-yl)-5,6,7,8-tetrahydro-[1,2,4]triazolo[4,3-a]pyrazine], the Kd at ROCK1 turned out to be 16 µM. At ROCK2, the “ROCK 2 Selectivity” value is listed as 21.3 and the Kd was found to be 0.75 µM.

As for `FC(F)(F)c1nnc2n1CCN(c1nccc(-c3nccc(C#Cc4ccc5[nH]ncc5c4)n3)n1)C2` [Ex. 60, 7-(4-((1H-Indazol-5-yl)ethynyl)-[2,4′-bipyrimidin]-2′-yl)-3-(trifluoromethyl)-5,6,7,8-tetrahydro-[1,2,4]triazolo[4,3-a]pyrazine], at ROCK1, binding was characterised by a dissociation constant (Kd) of 9.9 µM. On ROCK2, the “ROCK 2 Selectivity” value is listed as 47.1 and the Kd turned out to be 0.21 µM.

In turn, `Clc1ccc(N2CCN(c3nccc(-c4nccc(C#Cc5ccc6[nH]ncc6c5)n4)n3)CC2)cc1` [Ex. 61, 5-((2′-(4-(4-Chlorophenyl)piperazin-1-yl)-[2,4′-bipyrimidin]-4-yl)ethynyl)-1H-indazole] yielded a Kd at ROCK1 of 22 µM. In addition, on ROCK2, the “ROCK 2 Selectivity” value is recorded as 44.9 and the Kd is 0.49 µM.

Compound `Oc1ccc(N2CCN(c3nccc(-c4nccc(C#Cc5ccc6[nH]ncc6c5)n4)n3)CC2)cc1` [Ex. 62, 4-(4-(4-((1H-Indazol-5-yl)ethynyl)-[2,4′-bipyrimidin]-2′-yl)piperazin-1-yl)phenol] yielded a Kd at ROCK1 of 13 µM. Also, at ROCK2, the “ROCK 2 Selectivity” value is reported as 118.2 and the Kd was found to be 0.11 µM.

Compound `C(#Cc1ccnc(-c2ccnc(N3CCN(c4nccs4)CC3)n2)n1)c1ccc2[nH]ncc2c1` [Ex. 63, 2-(4-(4-((1H-Indazol-5-yl)ethynyl)-[2,4′-bipyrimidin]-2′-yl)piperazin-1-yl)thiazole] gave a Kd at ROCK1 above 30 µM. In addition, on ROCK2, the “ROCK 2 Selectivity” value is on record as above 90.9 and the equilibrium dissociation constant (Kd) came out at 0.33 µM.

Take `Cc1nnc2n1CCN(c1nccc(-c3nccc(C#Cc4ccc5[nH]ncc5c4)n3)n1)C2` [Ex. 64, 7-(4-((1H-Indazol-5-yl)ethynyl)-[2,4′-bipyrimidin]-2′-yl)-3-methyl-5,6,7,8-tetrahydro-[1,2,4]triazolo[4,3-a]pyrazine]: the Kd on ROCK1 turned out to be 3.4 µM. Besides, on ROCK2, the “ROCK 2 Selectivity” value was 10.3 and the Kd came out at 0.33 µM.

With `C(#Cc1ccnc(-c2ccnc(N3Cc4ncsc4C3)n2)n1)c1ccc2[nH]ncc2c1` [Ex. 65, 5-(4-((1H-Indazol-5-yl)ethynyl)-[2,4′-bipyrimidin]-2′-yl)-5,6-dihydro-4H-pyrrolo[3,4-d]thiazole], the dissociation constant Kd at ROCK1 is 3.4 µM; on ROCK2, 0.024 µM. Further, the “ROCK 2 Selectivity” value at ROCK2 is recorded as 142.

As for `C(#Cc1ccnc(-c2ccnc(N3CCC(c4ccccc4)C3)n2)n1)c1ccc2[nH]ncc2c1` (stereo not drawn) [Ex. 69, 5-((2′-(3-Phenylpyrrolidin-1-yl)-[2,4′-bipyrimidin]-4-yl)ethynyl)-1H-indazole], binding at ROCK1 was characterised by a dissociation constant (Kd) of 9.4 µM. Also, on ROCK2, the “ROCK 2 Selectivity” value is on record as 36.2 and the equilibrium dissociation constant (Kd) was found to be 0.26 µM.

With `COc1cccc(C2CCN(c3nccc(-c4nccc(C#Cc5ccc6[nH]ncc6c5)n4)n3)C2)c1` (stereo not drawn) [Ex. 70, 5-((2′-(3-(3-Methoxyphenyl)pyrrolidin-1-yl)-[2,4′-bipyrimidin]-4-yl)ethynyl)-1H-indazole], the Kd was 6.1 µM at ROCK1 and 0.22 µM on ROCK2. Besides, at ROCK2, the “ROCK 2 Selectivity” value was 27.7.

The compound `Fc1ccc(C2CCN(c3nccc(-c4nccc(C#Cc5ccc6[nH]ncc6c5)n4)n3)C2)cc1` (stereo not drawn) [Ex. 71, 5-((2′-(3-(4-Fluorophenyl)pyrrolidin-1-yl)-[2,4′-bipyrimidin]-4-yl)ethynyl)-1H-indazole] had a Kd on ROCK1 of 13 µM. Besides, on ROCK2, the “ROCK 2 Selectivity” value was 36.1 and the Kd came to 0.36 µM.

For the compound `CC(C)NC(=O)COc1cccc(-c2nc(Nc3ccc4[nH]ncc4c3)c3ccccc3n2)c1` [KD025], the “hemodynamic or other side effects” value in data set [1] was “no hemodynamic or other side effects”. Also, the “expression of pro-inflammatory, fibrosis-linked cytokines; autoimmune disease” value in data set [2] is “decreased expression of pro-inflammatory, fibrosis-linked cytokines and mitigated murine autoimmune disease”. The “expression of profibrotic mRNA” value in the data set with fibroblasts was “decreased expression of several profibrotic mRNA including that of CTGF”.

Values taken from US20220281841A1, “ETHYNYLHETEROCYCLES AS RHO-ASSOCIATED COILED-COIL KINASE (ROCK) INHIBITORS” (Angion Biomedica Corp., priority 2019, published 2022).
